Assay results as given in ChEMBL document CHEMBL3991601, “The target landscape of clinical kinase drugs” (Science, 2017).
Activity calls are given as the source filed them.

Legend:
[1] = molecular target: DNA topoisomerase 2-alpha (Homo sapiens, UniProt P11388)
[2] = molecular target: Serine/threonine-protein kinase 24 (Homo sapiens, UniProt Q9Y6E0)
[3] = molecular target: PAS domain-containing serine/threonine-protein kinase (Homo sapiens, UniProt Q96RG2)
[4] = molecular target: T1, Dual specificity protein kinase TTK (Homo sapiens, UniProt P33981)
T1 sequence (P33981 whole entry): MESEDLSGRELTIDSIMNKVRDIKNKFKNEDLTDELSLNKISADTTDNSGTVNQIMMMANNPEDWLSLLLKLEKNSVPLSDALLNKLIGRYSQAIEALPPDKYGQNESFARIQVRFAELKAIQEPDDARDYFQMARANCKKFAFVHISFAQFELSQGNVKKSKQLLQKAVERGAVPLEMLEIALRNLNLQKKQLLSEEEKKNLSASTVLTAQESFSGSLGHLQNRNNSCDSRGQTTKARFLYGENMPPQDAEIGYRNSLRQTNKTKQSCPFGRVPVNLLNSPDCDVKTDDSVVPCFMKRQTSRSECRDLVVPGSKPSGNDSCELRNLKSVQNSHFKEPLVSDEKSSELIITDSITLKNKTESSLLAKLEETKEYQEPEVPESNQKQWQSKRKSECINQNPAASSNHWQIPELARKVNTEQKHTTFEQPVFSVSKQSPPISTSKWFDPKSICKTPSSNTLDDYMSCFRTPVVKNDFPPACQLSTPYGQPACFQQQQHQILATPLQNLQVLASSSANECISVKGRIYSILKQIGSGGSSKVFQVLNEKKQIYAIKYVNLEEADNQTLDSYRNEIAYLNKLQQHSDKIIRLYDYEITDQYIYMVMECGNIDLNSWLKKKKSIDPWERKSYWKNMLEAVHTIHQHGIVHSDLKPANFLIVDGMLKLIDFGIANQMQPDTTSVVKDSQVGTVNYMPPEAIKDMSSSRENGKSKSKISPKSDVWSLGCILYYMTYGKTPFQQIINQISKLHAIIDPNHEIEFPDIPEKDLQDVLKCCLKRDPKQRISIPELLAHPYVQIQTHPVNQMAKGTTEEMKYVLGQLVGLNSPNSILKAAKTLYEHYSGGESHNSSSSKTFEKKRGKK

[5] = molecular target: Hepatocyte growth factor receptor (Homo sapiens, UniProt P08581)
Sequence of Hepatocyte growth factor receptor (P08581 whole entry, the tested form may be a part): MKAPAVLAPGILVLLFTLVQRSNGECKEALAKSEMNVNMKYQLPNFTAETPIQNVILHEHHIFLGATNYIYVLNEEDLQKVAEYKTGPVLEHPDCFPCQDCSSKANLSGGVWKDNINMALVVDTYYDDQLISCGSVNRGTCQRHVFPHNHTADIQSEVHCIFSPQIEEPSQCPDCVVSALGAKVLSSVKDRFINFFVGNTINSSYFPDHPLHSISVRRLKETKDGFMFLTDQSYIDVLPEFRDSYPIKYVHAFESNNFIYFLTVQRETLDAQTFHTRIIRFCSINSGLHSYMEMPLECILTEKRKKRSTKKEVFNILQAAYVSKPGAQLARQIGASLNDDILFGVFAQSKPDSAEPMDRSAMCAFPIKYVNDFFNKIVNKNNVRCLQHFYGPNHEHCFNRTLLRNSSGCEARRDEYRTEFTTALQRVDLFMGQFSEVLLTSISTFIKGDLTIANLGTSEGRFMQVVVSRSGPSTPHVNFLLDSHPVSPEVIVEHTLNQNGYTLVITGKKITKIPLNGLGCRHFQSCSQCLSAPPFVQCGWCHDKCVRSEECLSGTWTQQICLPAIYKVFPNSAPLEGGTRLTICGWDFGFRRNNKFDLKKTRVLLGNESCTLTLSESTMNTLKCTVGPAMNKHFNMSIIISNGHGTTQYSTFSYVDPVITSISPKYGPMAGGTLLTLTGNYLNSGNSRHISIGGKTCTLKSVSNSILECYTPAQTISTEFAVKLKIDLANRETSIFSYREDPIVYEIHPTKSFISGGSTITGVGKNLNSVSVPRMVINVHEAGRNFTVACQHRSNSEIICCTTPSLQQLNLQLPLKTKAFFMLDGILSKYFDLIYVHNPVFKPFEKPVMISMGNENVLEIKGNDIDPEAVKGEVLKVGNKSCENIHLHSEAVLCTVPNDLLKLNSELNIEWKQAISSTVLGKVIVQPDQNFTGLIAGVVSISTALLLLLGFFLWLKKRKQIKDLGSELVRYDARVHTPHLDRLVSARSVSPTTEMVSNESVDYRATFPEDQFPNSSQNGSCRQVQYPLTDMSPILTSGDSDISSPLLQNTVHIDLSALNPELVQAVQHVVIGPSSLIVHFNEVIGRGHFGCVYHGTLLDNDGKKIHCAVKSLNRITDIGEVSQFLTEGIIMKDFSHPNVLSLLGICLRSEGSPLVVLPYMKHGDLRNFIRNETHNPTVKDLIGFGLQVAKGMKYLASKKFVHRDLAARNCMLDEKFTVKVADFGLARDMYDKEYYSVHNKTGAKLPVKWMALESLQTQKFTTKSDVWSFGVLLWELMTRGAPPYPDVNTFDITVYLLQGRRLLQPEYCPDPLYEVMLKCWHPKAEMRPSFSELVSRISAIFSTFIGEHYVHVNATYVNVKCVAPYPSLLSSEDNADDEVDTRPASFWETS

[6] = molecular target: Uncharacterized aarF domain-containing protein kinase 5 (Homo sapiens, UniProt Q3MIX3)
Sequence of Uncharacterized aarF domain-containing protein kinase 5 (Q3MIX3 whole entry, the tested form may be a part): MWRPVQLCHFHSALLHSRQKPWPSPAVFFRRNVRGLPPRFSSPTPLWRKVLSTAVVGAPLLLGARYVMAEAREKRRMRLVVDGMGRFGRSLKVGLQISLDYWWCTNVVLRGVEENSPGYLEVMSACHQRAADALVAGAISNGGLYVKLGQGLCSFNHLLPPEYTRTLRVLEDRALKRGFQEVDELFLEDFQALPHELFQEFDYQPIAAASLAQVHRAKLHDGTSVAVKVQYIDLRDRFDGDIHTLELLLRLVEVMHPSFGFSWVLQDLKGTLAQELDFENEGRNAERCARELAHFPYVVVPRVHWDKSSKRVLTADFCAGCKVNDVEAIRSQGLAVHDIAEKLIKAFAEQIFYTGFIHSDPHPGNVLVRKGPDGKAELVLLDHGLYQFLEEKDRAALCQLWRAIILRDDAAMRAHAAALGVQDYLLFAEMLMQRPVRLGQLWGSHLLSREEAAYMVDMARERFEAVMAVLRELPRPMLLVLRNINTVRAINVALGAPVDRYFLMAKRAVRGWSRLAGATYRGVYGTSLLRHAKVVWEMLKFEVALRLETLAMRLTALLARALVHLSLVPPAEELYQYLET

Myosin-10 = Myosin-10 (Homo sapiens, UniProt P35580)
[7] = molecular target: Serine/threonine-protein kinase PAK 6 (Homo sapiens, UniProt Q9NQU5)
Sequence of Serine/threonine-protein kinase PAK 6 (Q9NQU5 whole entry): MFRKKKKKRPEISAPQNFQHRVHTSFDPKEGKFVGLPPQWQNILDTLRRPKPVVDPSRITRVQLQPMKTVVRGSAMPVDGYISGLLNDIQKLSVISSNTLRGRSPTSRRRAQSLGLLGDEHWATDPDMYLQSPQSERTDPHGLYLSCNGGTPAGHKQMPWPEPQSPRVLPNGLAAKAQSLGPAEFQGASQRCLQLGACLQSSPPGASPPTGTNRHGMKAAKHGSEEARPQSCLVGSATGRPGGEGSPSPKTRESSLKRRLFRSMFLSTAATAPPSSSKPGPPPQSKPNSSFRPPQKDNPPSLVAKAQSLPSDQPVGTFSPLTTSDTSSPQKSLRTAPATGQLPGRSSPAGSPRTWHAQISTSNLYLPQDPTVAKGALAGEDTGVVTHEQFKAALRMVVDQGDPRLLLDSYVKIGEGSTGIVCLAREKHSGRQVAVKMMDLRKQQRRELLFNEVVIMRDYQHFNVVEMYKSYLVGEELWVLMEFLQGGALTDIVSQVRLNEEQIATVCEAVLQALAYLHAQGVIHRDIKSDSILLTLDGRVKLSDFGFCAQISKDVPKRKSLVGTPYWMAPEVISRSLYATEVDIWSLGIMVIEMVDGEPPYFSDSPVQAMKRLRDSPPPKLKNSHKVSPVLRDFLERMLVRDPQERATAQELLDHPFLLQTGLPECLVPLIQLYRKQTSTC

[8] = molecular target: Dual specificity testis-specific protein kinase 1 (Homo sapiens, UniProt Q15569)
Sequence of Dual specificity testis-specific protein kinase 1 (Q15569 whole entry): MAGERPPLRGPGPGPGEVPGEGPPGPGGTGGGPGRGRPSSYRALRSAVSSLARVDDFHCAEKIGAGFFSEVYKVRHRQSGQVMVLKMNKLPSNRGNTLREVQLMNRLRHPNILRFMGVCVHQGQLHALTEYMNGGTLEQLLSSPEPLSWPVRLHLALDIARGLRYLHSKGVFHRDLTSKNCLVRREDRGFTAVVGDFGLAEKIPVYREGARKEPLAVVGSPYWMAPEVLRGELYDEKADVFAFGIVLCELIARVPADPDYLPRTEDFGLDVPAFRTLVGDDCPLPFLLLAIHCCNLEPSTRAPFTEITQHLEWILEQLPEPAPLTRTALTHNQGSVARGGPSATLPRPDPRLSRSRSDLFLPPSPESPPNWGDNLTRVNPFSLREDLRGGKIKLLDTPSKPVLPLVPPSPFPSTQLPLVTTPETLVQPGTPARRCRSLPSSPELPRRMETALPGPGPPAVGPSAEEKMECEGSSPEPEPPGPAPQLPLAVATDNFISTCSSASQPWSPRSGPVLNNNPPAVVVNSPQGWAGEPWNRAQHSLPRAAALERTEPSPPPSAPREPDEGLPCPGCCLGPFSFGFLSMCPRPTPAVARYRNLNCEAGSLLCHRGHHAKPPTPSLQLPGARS

[9] = molecular target: Choline-phosphate cytidylyltransferase A (Homo sapiens, UniProt P49585)
Sequence of Choline-phosphate cytidylyltransferase A (P49585 whole entry): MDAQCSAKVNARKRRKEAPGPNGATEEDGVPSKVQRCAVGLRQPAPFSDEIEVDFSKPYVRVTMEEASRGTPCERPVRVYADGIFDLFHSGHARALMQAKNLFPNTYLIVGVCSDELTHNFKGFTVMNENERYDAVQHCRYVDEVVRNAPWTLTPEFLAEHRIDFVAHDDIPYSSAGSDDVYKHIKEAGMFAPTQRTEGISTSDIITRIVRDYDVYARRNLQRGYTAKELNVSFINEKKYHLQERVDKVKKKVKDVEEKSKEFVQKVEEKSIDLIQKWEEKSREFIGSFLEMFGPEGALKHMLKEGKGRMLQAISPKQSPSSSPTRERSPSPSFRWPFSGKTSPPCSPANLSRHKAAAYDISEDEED

[10] = molecular target: Dual specificity protein kinase CLK4 (Homo sapiens, UniProt Q9HAZ1)
[11] = molecular target: G protein-coupled receptor kinase 6 (Homo sapiens, UniProt P43250)
Sequence of G protein-coupled receptor kinase 6 (P43250 whole entry): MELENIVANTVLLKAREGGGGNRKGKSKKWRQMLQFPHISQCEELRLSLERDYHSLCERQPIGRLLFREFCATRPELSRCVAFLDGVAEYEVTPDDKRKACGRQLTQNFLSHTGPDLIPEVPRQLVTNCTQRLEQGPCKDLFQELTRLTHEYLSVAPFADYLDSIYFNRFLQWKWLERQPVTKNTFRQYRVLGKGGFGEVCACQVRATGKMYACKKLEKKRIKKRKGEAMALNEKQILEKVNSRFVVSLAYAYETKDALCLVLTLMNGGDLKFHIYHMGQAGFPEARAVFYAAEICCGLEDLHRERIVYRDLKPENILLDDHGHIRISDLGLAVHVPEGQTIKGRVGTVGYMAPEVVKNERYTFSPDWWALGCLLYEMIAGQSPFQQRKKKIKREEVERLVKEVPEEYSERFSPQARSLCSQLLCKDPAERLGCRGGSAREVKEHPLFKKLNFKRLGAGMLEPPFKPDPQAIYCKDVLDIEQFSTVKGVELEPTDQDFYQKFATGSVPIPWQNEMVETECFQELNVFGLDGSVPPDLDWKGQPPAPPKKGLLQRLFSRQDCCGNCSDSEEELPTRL

[12] = molecular target: Serine/threonine-protein kinase Nek7 (Homo sapiens, UniProt Q8TDX7)
Sequence of Serine/threonine-protein kinase Nek7 (Q8TDX7 whole entry): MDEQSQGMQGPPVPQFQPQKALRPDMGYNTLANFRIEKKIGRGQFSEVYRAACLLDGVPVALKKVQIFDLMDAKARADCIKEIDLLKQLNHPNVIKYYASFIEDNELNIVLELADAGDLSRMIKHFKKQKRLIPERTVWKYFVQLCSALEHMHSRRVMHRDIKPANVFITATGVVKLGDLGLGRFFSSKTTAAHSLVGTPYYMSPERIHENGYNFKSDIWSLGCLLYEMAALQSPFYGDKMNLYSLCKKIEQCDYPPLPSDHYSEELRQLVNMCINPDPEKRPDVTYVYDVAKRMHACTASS

[13] = molecular target: Proto-oncogene tyrosine-protein kinase receptor Ret (Homo sapiens, UniProt P07949)
[14] = molecular target: T2, ATP-dependent RNA helicase DHX30 (Homo sapiens, UniProt Q7L2E3)
T2 sequence (Q7L2E3 whole entry): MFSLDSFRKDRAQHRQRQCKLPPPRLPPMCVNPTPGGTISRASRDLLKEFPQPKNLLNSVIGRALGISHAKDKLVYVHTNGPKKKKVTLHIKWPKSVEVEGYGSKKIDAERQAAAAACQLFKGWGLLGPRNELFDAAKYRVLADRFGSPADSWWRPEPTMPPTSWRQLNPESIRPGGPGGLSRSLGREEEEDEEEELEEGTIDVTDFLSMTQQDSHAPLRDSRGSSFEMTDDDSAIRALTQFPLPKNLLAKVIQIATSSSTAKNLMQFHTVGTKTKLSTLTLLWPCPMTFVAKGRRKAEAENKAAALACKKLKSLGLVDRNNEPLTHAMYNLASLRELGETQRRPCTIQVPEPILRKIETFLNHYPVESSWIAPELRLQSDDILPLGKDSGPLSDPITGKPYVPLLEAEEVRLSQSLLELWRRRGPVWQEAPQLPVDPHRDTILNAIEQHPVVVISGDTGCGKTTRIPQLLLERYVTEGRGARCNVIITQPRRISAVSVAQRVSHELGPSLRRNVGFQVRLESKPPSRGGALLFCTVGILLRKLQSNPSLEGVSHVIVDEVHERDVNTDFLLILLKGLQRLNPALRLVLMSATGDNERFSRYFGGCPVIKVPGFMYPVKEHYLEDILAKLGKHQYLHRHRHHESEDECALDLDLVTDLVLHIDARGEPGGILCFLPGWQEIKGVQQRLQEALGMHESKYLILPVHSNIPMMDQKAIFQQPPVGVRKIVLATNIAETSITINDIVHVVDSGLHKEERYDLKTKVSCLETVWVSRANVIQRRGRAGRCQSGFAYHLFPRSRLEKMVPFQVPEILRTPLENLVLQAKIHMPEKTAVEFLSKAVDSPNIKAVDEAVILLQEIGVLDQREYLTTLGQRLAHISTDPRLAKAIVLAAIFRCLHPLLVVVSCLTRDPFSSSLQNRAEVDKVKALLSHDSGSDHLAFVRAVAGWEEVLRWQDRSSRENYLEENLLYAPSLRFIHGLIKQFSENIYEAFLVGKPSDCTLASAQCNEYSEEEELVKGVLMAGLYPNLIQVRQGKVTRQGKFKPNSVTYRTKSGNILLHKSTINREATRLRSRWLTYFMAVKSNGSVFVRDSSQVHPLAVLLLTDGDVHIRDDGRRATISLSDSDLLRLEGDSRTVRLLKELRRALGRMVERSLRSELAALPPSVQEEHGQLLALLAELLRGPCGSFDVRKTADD

[15] = molecular target: Dual specificity testis-specific protein kinase 2 (Homo sapiens, UniProt Q96S53)

Measured: Kd
Also: in the data inactive means no Kd found up to 30 µM.

Sequence of Serine/threonine-protein kinase 24 (Q9Y6E0 whole entry, the tested form may be a part): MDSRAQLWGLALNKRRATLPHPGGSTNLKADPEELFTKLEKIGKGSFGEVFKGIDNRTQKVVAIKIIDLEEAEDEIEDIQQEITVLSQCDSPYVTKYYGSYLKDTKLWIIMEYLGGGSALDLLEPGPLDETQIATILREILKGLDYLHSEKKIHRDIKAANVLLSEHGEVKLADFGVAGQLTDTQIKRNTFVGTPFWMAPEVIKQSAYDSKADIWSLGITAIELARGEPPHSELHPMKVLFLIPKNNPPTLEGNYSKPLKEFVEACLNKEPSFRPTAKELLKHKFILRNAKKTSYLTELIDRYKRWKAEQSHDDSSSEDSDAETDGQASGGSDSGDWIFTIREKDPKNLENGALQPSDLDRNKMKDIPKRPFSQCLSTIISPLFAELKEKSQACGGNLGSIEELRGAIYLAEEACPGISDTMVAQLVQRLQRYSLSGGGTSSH

O=C(NOC[C@H](O)CO)c1ccc(F)c(F)c1Nc1ccc(I)cc1F [MIRDAMETINIB]
inactive: [1] > 30 µM | [2] > 30 µM | [3] > 30 µM | [4] > 30 µM | [5] > 30 µM | [6] > 30 µM | Myosin-10 > 30 µM | [7] > 30 µM | [8] > 30 µM | [9] > 30 µM | [10] > 30 µM | [11] > 30 µM | [12] > 30 µM | [13] > 30 µM | [14] > 30 µM

C#Cc1cccc(Nc2ncnc3cc4c(cc23)OCCOCCOCCO4)c1 [ICOTINIB]
inactive: [1] > 30 µM | [2] > 30 µM | [3] > 30 µM | [15] > 30 µM | [5] > 30 µM | [6] > 30 µM | Myosin-10 > 30 µM | [7] > 30 µM | [8] > 30 µM | [9] > 30 µM | [10] > 30 µM | [11] > 30 µM | [12] > 30 µM | [13] > 30 µM | [14] > 30 µM

c1cc(OCCN2CCCCC2)cc(-c2n[nH]c3ccc(-c4nc[nH]n4)cc23)c1 [CC-401]
inactive: [1] > 30 µM | [2] > 30 µM | [4] > 30 µM | [15] > 30 µM | [5] > 30 µM | [6] > 30 µM | [7] > 30 µM | [8] > 30 µM | [9] > 30 µM | [10] > 30 µM | [11] > 30 µM | [12] > 30 µM | [13] > 30 µM | [14] > 30 µM
